Experimental data taken from PubChem BioAssay AID1918957 (Molecular Pharmacology Branch, DTP, NCI, 2023).
Where “and” joins values, the source holds several entries; their conditions need not be identical. Equal entries are not always repeated. Blank lines part the entries; values can stand above or below the compound they belong to.

Test system: NCI-H1876 complex spheroid viability
Assay: Anticancer human tumor NCI-H1876 cell line growth inhibition [LSD1];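 note: spheroids exposed to compounds for one week before readout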;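 for viability, T/C: 100% = DMSO vehicle-treated spheroids so lower means fewer viable cells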
Settings: for viability, T/C: stronger effect = lower value
Method in brief: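 Complex spheroids of tumor cells with HUVEC and human MSCs, exposed to iadademstat combined with other agents. Each agent tested in half-log steps from near clinical Cmax (else 10 microM top), DMSO ≤0.25%.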

[1] = curve of first compound, second compound 0.1 µM
[2] = curve of first compound, second compound 0.316 µM
[3] = curve of first compound, second compound 1 µM
[4] = curve of first compound, second compound 3.16 µM
[5] = curve of first compound, second compound 10 µM
[6] = second compound 0.1 µM, first compound 0.0316 µM
[7] = second compound 0.1 µM, first compound 0.1 µM
[8] = second compound 0.1 µM, first compound 0.316 µM
[9] = second compound 0.1 µM, first compound 1 µM
[10] = second compound 0.1 µM, first compound 3.16 µM
[11] = second compound 0.1 µM, first compound 10 µM
[12] = second compound 0.316 µM, first compound 0.0316 µM
[13] = second compound 0.316 µM, first compound 0.1 µM
[14] = second compound 0.316 µM, first compound 0.316 µM
[15] = second compound 0.316 µM, first compound 1 µM
[16] = second compound 0.316 µM, first compound 3.16 µM
[17] = second compound 0.316 µM, first compound 10 µM
[18] = second compound 1 µM, first compound 0.0316 µM
[19] = second compound 1 µM, first compound 0.1 µM
[20] = second compound 1 µM, first compound 0.316 µM
[21] = second compound 1 µM, first compound 1 µM
[22] = second compound 1 µM, first compound 3.16 µM
[23] = second compound 1 µM, first compound 10 µM
[24] = second compound 3.16 µM, first compound 0.0316 µM
[25] = second compound 3.16 µM, first compound 0.1 µM
[26] = second compound 3.16 µM, first compound 0.316 µM
[27] = second compound 3.16 µM, first compound 1 µM
[28] = second compound 3.16 µM, first compound 3.16 µM
[29] = second compound 3.16 µM, first compound 10 µM
[30] = second compound 10 µM, first compound 0.0316 µM
[31] = second compound 10 µM, first compound 0.1 µM
[32] = second compound 10 µM, first compound 0.316 µM
[33] = second compound 10 µM, first compound 1 µM
[34] = second compound 10 µM, first compound 3.16 µM
[35] = second compound 10 µM, first compound 10 µM

SMILES: CC1(C)CCC(CN2CCN(c3ccc(C(=O)NS(=O)(=O)c4ccc(NCC5CCOCC5)c([N+](=O)[O-])c4)c(Oc4cnc5[nH]ccc5c4)c3)CC2)=C(c2ccc(Cl)cc2)C1 + NC1CCC(NC2CC2c2ccccc2)CC1
IC50 [1]: 2140 nM | IC50 [2]: 2000 nM | IC50 [3]: 2090 nM | IC50 [4]: 2060 nM | IC50 [5]: 2010 nM | viability, T/C [6]: 103% | viability, T/C [7]: 98.4% | viability, T/C [8]: 99.3% | viability, T/C [9]: 100% | viability, T/C [10]: 24.5% | viability, T/C [11]: 9.5% | viability, T/C [12]: 104% | viability, T/C [13]: 105% | viability, T/C [14]: 97% | viability, T/C [15]: 89.1% | viability, T/C [16]: 24.3% | viability, T/C [17]: 10.5% | viability, T/C [18]: 92.9% | viability, T/C [19]: 104% | viability, T/C [20]: 102% | viability, T/C [21]: 98.9% | viability, T/C [22]: 22.4% | viability, T/C [23]: 8.48% | viability, T/C [24]: 115% | viability, T/C [25]: 96.2% | viability, T/C [26]: 103% | viability, T/C [27]: 101% | viability, T/C [28]: 19.8% | viability, T/C [29]: 7.55% | viability, T/C [30]: 99.2% | viability, T/C [31]: 110% | viability, T/C [32]: 87.2% | viability, T/C [33]: 90.6% | viability, T/C [34]: 23.6% | viability, T/C [35]: 8%

SMILES: COc1cc(C2c3cc4c(cc3C(OC3OC5COC(C)OC5C(O)C3O)C3COC(=O)C23)OCO4)cc(OC)c1O (stereo unspecified) + NC1CC1c1ccc(-c2cccc(O)c2)cc1
IC50 [1]: 36.6 nM | IC50 [2]: 34.6 nM | IC50 [3]: 35.2 nM | IC50 [4]: 40.4 nM | IC50 [5]: 35.3 nM | viability, T/C (second compound 0.1 µM, first compound 0.00949 µM): 87.6% | viability, T/C (second compound 0.1 µM, first compound 0.03 µM): 56.3% | viability, T/C (second compound 0.1 µM, first compound 0.0949 µM): 20.1% | viability, T/C (second compound 0.1 µM, first compound 0.3 µM): 11.4% | viability, T/C (second compound 0.1 µM, first compound 0.949 µM): 8.84% | viability, T/C (second compound 0.1 µM, first compound 3 µM): 10.2% | viability, T/C (second compound 0.316 µM, first compound 0.00949 µM): 84.4% | viability, T/C (second compound 0.316 µM, first compound 0.03 µM): 54.4% | viability, T/C (second compound 0.316 µM, first compound 0.0949 µM): 18.6% | viability, T/C (second compound 0.316 µM, first compound 0.3 µM): 10.9% | viability, T/C (second compound 0.316 µM, first compound 0.949 µM): 9.79% | viability, T/C (second compound 0.316 µM, first compound 3 µM): 8.38% | viability, T/C (second compound 1 µM, first compound 0.00949 µM): 92% | viability, T/C (second compound 1 µM, first compound 0.03 µM): 55.2% | viability, T/C (second compound 1 µM, first compound 0.0949 µM): 18% | viability, T/C (second compound 1 µM, first compound 0.3 µM): 11.6% | viability, T/C (second compound 1 µM, first compound 0.949 µM): 9.23% | viability, T/C (second compound 1 µM, first compound 3 µM): 8.55% | viability, T/C (second compound 3.16 µM, first compound 0.00949 µM): 93.9% | viability, T/C (second compound 3.16 µM, first compound 0.03 µM): 60.5% | viability, T/C (second compound 3.16 µM, first compound 0.0949 µM): 19.9% | viability, T/C (second compound 3.16 µM, first compound 0.3 µM): 13% | viability, T/C (second compound 3.16 µM, first compound 0.949 µM): 9% | viability, T/C (second compound 3.16 µM, first compound 3 µM): 8.78% | viability, T/C (second compound 10 µM, first compound 0.00949 µM): 85.3% | viability, T/C (second compound 10 µM, first compound 0.03 µM): 54.9% | viability, T/C (second compound 10 µM, first compound 0.0949 µM): 20.7% | viability, T/C (second compound 10 µM, first compound 0.3 µM): 13.8% | viability, T/C (second compound 10 µM, first compound 0.949 µM): 11% | viability, T/C (second compound 10 µM, first compound 3 µM): 9.82%

SMILES: COc1ccc([C@@H](O)c2cc(-c3ncnc4cc(N5CCOCC5)ccc34)c(F)cc2Cl)nn1 + NC1CCC(NC2CC2c2ccccc2)CC1
IC50 [1]: 3070 nM | IC50 [2]: 3490 nM | IC50 [3]: 3780 nM | IC50 [4]: 3480 nM | IC50 [5]: 3130 nM | viability, T/C [6]: 109% | viability, T/C [7]: 97.4% | viability, T/C [8]: 109% | viability, T/C [9]: 91.2% | viability, T/C [10]: 49.2% | viability, T/C [11]: 23.4% | viability, T/C [12]: 112% | viability, T/C [13]: 105% | viability, T/C [14]: 95.8% | viability, T/C [15]: 85.3% | viability, T/C [16]: 50.7% | viability, T/C [17]: 21.3% | viability, T/C [18]: 113% | viability, T/C [19]: 107% | viability, T/C [20]: 99.7% | viability, T/C [21]: 84.7% | viability, T/C [22]: 53.9% | viability, T/C [23]: 24.5% | viability, T/C [24]: 113% | viability, T/C [25]: 113% | viability, T/C [26]: 94.3% | viability, T/C [27]: 76.4% | viability, T/C [28]: 54.2% | viability, T/C [29]: 21.9% | viability, T/C [30]: 101% | viability, T/C [31]: 110% | viability, T/C [32]: 94.2% | viability, T/C [33]: 70.9% | viability, T/C [34]: 53.3% | viability, T/C [35]: 26%

SMILES: CC[C@@]1(O)C(=O)OCc2c1cc1n(c2=O)Cc2cc3c(CN(C)C)c(O)ccc3nc2-1 + NC1CC1c1ccc(-c2cccc(O)c2)cc1
IC50 [1]: 1.82 nM | IC50 [2]: 1.8 nM | IC50 [3]: 1.81 nM | IC50 [4]: 1.73 nM | IC50 [5]: 1.69 nM | viability, T/C (second compound 0.1 µM, first compound 0.000316 µM): 102% | viability, T/C (second compound 0.1 µM, first compound 0.001 µM): 87.4% | viability, T/C (second compound 0.1 µM, first compound 0.00316 µM): 15.2% | viability, T/C (second compound 0.1 µM, first compound 0.01 µM): 10.4% | viability, T/C [6]: 6.25% | viability, T/C [7]: 4.62% | viability, T/C (second compound 0.316 µM, first compound 0.000316 µM): 102% | viability, T/C (second compound 0.316 µM, first compound 0.001 µM): 86.2% | viability, T/C (second compound 0.316 µM, first compound 0.00316 µM): 15.2% | viability, T/C (second compound 0.316 µM, first compound 0.01 µM): 9.15% | viability, T/C [12]: 6.84% | viability, T/C [13]: 4.48% | viability, T/C (second compound 1 µM, first compound 0.000316 µM): 104% | viability, T/C (second compound 1 µM, first compound 0.001 µM): 87% | viability, T/C (second compound 1 µM, first compound 0.00316 µM): 15.2% | viability, T/C (second compound 1 µM, first compound 0.01 µM): 9.89% | viability, T/C [18]: 6.39% | viability, T/C [19]: 4.42% | viability, T/C (second compound 3.16 µM, first compound 0.000316 µM): 100% | viability, T/C (second compound 3.16 µM, first compound 0.001 µM): 81.5% | viability, T/C (second compound 3.16 µM, first compound 0.00316 µM): 15.6% | viability, T/C (second compound 3.16 µM, first compound 0.01 µM): 10.3% | viability, T/C [24]: 7.55% | viability, T/C [25]: 4.94% | viability, T/C (second compound 10 µM, first compound 0.000316 µM): 97.8% | viability, T/C (second compound 10 µM, first compound 0.001 µM): 76.8% | viability, T/C (second compound 10 µM, first compound 0.00316 µM): 17.8% | viability, T/C (second compound 10 µM, first compound 0.01 µM): 15.2% | viability, T/C [30]: 8.77% | viability, T/C [31]: 6.56%

More lines, main results first:

IC50 (curve of compound): 6590 nM and 7280 nM
SMILES: CC(C)c1c(-c2ccccc2)nc2c(C#N)c[nH]n2c1=O
viability, T/C (compound 0.0316 µM): 93.8% and 104% | viability, T/C (compound 0.1 µM): 94.6% and 101% | viability, T/C (compound 0.316 µM): 92.2% and 103% | viability, T/C (compound 1 µM): 92% and 102% | viability, T/C (compound 3.16 µM): 89.2% and 94.4% | viability, T/C (compound 10 µM): 27.8% and 33.1%

IC50 (compound alone, run of 02/15/2022): > 10000 nM
SMILES: NC1CCC(NC2CC2c2ccccc2)CC1 (stereo unspecified)
viability, T/C (compound 0.316 µM): 98.5% and 109% | viability, T/C (compound 1 µM): 102% [middle of 25 runs] | viability, T/C (compound 3.16 µM): 102% [middle of 25 runs] | viability, T/C (compound 10 µM): 103% [middle of 23 runs]

IC50 (curve of compound): 54 nM and 37.8 nM
SMILES: COc1cc(C2c3cc4c(cc3C(OC3OC5COC(C)OC5C(O)C3O)C3COC(=O)C23)OCO4)cc(OC)c1O (stereo unspecified)
viability, T/C (compound 0.00949 µM): 85.4% and 93.8% | viability, T/C (compound 0.03 µM): 69.1% and 57.3% | viability, T/C (compound 0.0949 µM): 30.5% and 20.9% | viability, T/C (compound 0.3 µM): 32.1% and 11.1% | viability, T/C (compound 0.949 µM): 26.4% and 8.9% | viability, T/C (compound 3 µM): 11.7% and 9%

IC50 (curve of compound): 22.5 nM and 33.2 nM
SMILES: COc1cc(Nc2ncc3c(n2)-c2ccc(Cl)cc2C(c2c(F)cccc2OC)=NC3)ccc1C(=O)O
viability, T/C (compound 0.00316 µM): 66.5% and 69.5% | viability, T/C (compound 0.01 µM): 54% and 64.2% | viability, T/C (compound 0.0316 µM): 45.4% and 48.2% | viability, T/C (compound 0.1 µM): 42.4% and 38.4% | viability, T/C (compound 0.316 µM): 37.3% and 31.5% | viability, T/C (compound 1 µM): 28.3% and 19.5%
